Assay results published in patent US8168656B2, “Indoleacetic acid and indenacetic acid derivatives as therapeutic agents with reduced gastrointestinal toxicity” (Vanderbilt University, priority 2009, dated 2012).
Where a chain is given by its changes, count along the chain named.

Key:
Assay in all cases: Time-dependent IC50 COX inhibition assay
Assay type in all cases: biochemical, murine
[1] = molecular target: T1, mCOX-2^V349A (Mus musculus, UniProt Q05769, V335A)
T1 construct: made in house; host or cells: Sf9 insect cells (baculovirus, pVL1393)
T1 sequence (Q05769 18-604 V335A): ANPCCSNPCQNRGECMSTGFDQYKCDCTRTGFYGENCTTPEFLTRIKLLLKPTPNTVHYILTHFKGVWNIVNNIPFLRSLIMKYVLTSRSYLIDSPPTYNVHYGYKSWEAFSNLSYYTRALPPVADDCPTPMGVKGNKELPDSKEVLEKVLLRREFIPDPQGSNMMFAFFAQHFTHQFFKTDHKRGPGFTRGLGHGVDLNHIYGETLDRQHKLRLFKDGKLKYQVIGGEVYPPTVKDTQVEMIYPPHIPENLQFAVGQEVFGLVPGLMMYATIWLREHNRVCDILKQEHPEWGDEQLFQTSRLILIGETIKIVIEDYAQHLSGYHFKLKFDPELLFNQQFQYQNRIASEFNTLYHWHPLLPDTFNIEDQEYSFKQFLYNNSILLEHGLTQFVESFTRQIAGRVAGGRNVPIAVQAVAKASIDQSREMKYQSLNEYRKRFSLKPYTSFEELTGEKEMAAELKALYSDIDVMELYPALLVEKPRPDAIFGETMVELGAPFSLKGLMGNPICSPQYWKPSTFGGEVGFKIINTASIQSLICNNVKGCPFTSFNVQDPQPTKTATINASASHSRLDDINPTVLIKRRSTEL
Experimental: (§1) These mutated genes were used to assemble baculoviral constructs for large-scale expression in Sf9 cells. Purification of the expressed COX-2 protein was performed through traditional cellular fractionation and classical column chromatography. Activity or inhibition assays were performed in 100 mM Tris-HCl buffer containing 500 μM phenol, with hematin-reconstituted protein. Quantification of cyclooxygenase activity was performed by monitoring substrate (arachidonate or oxygen) consumption in a thermostatted cuvette at 37° C. using a polarographic electrode with a 5300 oxygen monitor (Yellow Springs Instrument Co. Inc., Yellow Springs, Ohio, United States of America). All inhibitors and substrates were solubilized in dimethyl sulfoxide (DMSO). Activity or inhibition assays were performed in 100 mM Tris-HCl buffer containing 500 μM phenol, with hematin-reconstituted protein. Maximal reaction velocity data were obtained from the linear portion of the oxygen uptake curves, and the data were analyzed by nonlinear regression with Prism 4.0 (GraphPad Software, San Diego, Calif., United States of America).
(§2) Time-dependent inhibition reactions were performed by pre-incubating the inhibitor and enzyme for 17 minutes at 25° C., followed by 3 minutes at 37° C. prior to the addition of 50 μM [1-^14C]-AA for 30 seconds at 37° C. Assays were terminated and analyzed for substrate consumption by thin layer chromatography as previously described (Kalgutkar et al., 2000a).
(§3) Maximal reaction velocity data were obtained from the linear portion of the oxygen uptake curves, and the data were analyzed by nonlinear regression. Instantaneous inhibition assays were performed with substrate and inhibitor added prior the initiation of the reaction by addition of protein. Time-dependent screening assays were performed by pre-incubating the inhibitor and enzyme for 17 minutes at 25° C., followed by 3 minutes at 37° C. prior to the addition of 50 μM [1-^14C]-arachidonic acid (AA) for 30 seconds at 37° C.
(§4) Assays were terminated and analyzed for substrate consumption by thin layer chromatography. […] Time-dependent COX inhibition reactions were pre-incubated at 37° C. for varying lengths of time (0-30 minutes) with various concentrations of inhibitor. All reactions were performed with [1-^14C]-AA for 30 seconds at 37° C.; reactions were terminated and analyzed as described above.
(§5) The COX reaction was allowed to proceed for 30 seconds before termination.

[2] = molecular target: T2, mCOX-2^V349I (Mus musculus, UniProt Q05769, V335I); details: 20 min pre-incubation, then 50 μM AA for 30 s
T2 construct: made in house; host or cells: Sf9 insect cells (baculovirus, pVL1393)
T2 sequence (Q05769 18-604 V335I): T1 sequence (Q05769 18-604 V335A) with A318I
Experimental: as §1, §2, §3, §4, §5

[3] = molecular target: T3, wild type mCOX-2 (Mus musculus, UniProt Q05769); details: 20 min pre-incubation, then 50 μM AA for 30 s
T3 construct: made in house; host or cells: Sf9 insect cells (baculovirus, pVL1393)
T3 sequence (Q05769 18-604): T1 sequence (Q05769 18-604 V335A) with A318V
Experimental: as §1, §2, §3, §4, §5

## COc1ccc2c(c1)c(CC(=O)O)cn2C(=O)c1ccc(Cl)cc1 [DM-INDO, 2-Des-methylindomethacin]
[1]
  inhibition in the time-dependent IC50 assay: less than 20%
[1]; 20 min pre-incubation, then 50 μM AA for 30 s
  IC50: > 16 µM
[2]
  IC50: 3 µM
[3]
  IC50: 4 µM
